The target in this assay is Eukaryotic translation initiation factor 4E (Homo sapiens, UniProt P06730). Put plainly: Inhibitory concentration against 7-methyl-GTP binding to eukaryotic translation initiation factor 4E.

The term IC50 denotes the concentration that gives 50% inhibition. A low value points to greater potency.

Structures are written as SMILES.

Eukaryotic translation initiation factor 4E, sequence (P06730 whole entry): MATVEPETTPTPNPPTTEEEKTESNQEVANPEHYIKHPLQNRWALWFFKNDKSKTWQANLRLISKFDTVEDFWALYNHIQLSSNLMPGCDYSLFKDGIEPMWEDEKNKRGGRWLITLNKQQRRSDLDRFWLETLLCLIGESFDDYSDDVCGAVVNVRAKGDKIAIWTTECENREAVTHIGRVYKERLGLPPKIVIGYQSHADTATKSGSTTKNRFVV

In the case of `CN1CN(C2O[C@H](CO)[C@@H](O)[C@H]2O)C2=NC=NC(O)C21` (some centres not stated), the concentration for half-maximal inhibition (IC50) is over 400 µM.

The molecule `CN1CN(C2O[C@H](CO)[C@@H](O)[C@H]2O)c2nc(N)[nH]c(=S)c21` (some centres not stated) came in with an IC50 of over 400 µM.

The values above are taken from BindingDB's records for doi:10.1016/j.bmcl.2005.01.080 (University of Minnesota, 2005).
